Kd and EC50 data for four compounds are collected here from publication doi:10.1101/2024.12.18.629081v1 (biorxiv, 2024).

What is called Kd is the equilibrium constant for the complex coming apart. Higher therefore signals lower affinity. In general, EC50 refers to the concentration at which the effect is half-maximal. High values mean weaker potency, low ones greater potency.

One test addresses FGFR3 (Homo sapiens, UniProt P22607). Briefly: SPR. It counts as binding.
Another test concerns the target T1, GCK (Homo sapiens, UniProt P35557).
T1 sequence (P35557 1-465): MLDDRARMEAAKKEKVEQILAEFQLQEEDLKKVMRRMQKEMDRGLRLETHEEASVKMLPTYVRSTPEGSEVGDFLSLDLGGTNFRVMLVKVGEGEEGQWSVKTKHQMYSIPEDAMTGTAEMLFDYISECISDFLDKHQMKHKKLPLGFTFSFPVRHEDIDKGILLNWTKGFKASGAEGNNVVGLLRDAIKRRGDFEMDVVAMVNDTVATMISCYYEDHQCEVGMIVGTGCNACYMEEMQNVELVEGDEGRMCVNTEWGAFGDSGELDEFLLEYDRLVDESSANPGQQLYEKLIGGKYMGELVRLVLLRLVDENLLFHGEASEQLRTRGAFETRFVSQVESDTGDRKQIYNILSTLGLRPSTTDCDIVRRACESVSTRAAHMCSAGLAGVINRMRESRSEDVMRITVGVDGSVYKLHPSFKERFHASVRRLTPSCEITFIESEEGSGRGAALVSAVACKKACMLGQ
Briefly: G6PDH-coupled activation assay, A340. The class given is biochemical.

FGFR3, sequence (P22607 449-759): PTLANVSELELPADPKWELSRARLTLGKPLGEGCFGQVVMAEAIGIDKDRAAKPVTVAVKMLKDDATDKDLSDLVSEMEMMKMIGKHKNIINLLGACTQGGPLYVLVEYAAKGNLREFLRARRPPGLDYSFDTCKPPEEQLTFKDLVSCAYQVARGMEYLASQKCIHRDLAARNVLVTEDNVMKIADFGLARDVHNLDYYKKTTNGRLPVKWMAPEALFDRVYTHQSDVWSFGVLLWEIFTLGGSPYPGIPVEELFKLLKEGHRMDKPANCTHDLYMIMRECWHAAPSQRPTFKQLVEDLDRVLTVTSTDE

For `Nc1nc2c(s1)[C@H](c1ccccc1OCc1ccc(Cl)cc1)CC(=O)N2` [F42], at FGFR3, the equilibrium dissociation constant (Kd) was determined as 61.4 µM.

Turning to `CNc1ccc(Sc2nnc[nH]2)nc1C(=O)Nc1nccs1` [G0], the EC50 at GCK is 1.81 ± 0.28 µM.

`Nc1nc2c(s1)[C@H](c1ccc(F)cc1)CC(=O)N2` [F4] had a Kd at FGFR3 of 599 µM.

With `Cc1cccc(Nc2ccc(Sc3nnc[nH]3)nc2C(=O)Nc2nccs2)c1` [G11], the half-maximal effective concentration (EC50) on GCK was 0.15 µM.
